Source: US20260042731A1, “(2,4-DICHLOROPHENOXY)ACETIC ACID ANALOGS” (CORTEVA AGRISCIENCE LLC, priority 2022, published 2026)
Where two headings read alike, the source gives them in different places.

Tests used:
[1] = test system: Amaranthus rudis (AMATA), tall water hemp; assay: Postemergence herbicide evaluation, growth of Amaranthus rudis (AMATA); format: in vivo; conditions: Amaranthus tuberculatus, post-emergence, percent reduction in plant size relative to untreated control, read-out: Ave. AMATA; for pest or weed control at 280 g/ha: 280 g ae/ha; for pest or weed control at 560 g/ha: 560 g ae/ha
[2] = test system: Ambrosia artemisiifolia (AMBEL), common ragweed; assay: Postemergence herbicide evaluation, growth of Ambrosia artemisiifolia (AMBEL); format: in vivo; conditions: Ambrosia artemisiifolia, post-emergence, percent reduction in plant size relative to untreated control, read-out: AVE. AMBEL; for pest or weed control at 280 g/ha: 280 g ae/ha; for pest or weed control at 560 g/ha: 560 g ae/ha
[3] = test system: Abutilon theophrasti (ABUTH), velvetleaf; assay: Postemergence herbicide evaluation, growth of Abutilon theophrasti (ABUTH); format: in vivo; conditions: Abutilon theophrasti, post-emergence, percent reduction in plant size relative to untreated control, read-out: AVE. ABUTH; for pest or weed control at 280 g/ha: 280 g ae/ha; for pest or weed control at 560 g/ha: 560 g ae/ha
[4] = test system: Chenopodium album (CHEAL), common lambsquarters; assay: Postemergence herbicide evaluation, growth of Chenopodium album (CHEAL); format: in vivo; conditions: Chenopodium album, post-emergence, percent reduction in plant size relative to untreated control, read-out: Ave. CHEAL; for pest or weed control at 280 g/ha: 280 g ae/ha; for pest or weed control at 560 g/ha: 560 g ae/ha
[5] = test system: glyphosate resistant Conyza canadensis (L.) (ERICA), horseweed; assay: Postemergence herbicide evaluation, growth of Conyza canadensis (ERICA); format: in vivo; conditions: Erigeron canadensis, post-emergence, percent reduction in plant size relative to untreated control, read-out: Ave. ERICA; for pest or weed control at 280 g/ha: 280 g ae/ha; for pest or weed control at 560 g/ha: 560 g ae/ha
[6] = Volatility of compounds measured by thermogravimetric analysis (TGA); format: physicochemical
[7] = test system: weeds (ABUTH, AMATA, AMBEL, CHEAL, ERICA); assay: Postemergence herbicide evaluation, overall average % weed control across ABUTH, AMATA, AMBEL, CHEAL, ERICA; format: in vivo; conditions: post-emergence, average over the five weeds, read-out: Overall Ave % Weed Control; for pest or weed control at 280 g/ha: 280 g ae/ha; for pest or weed control at 560 g/ha: 560 g ae/ha

| Structure (SMILES) | pest or weed control at 280 g/ha ([1]; 168 h, 7 DAA) [%] | pest or weed control at 560 g/ha ([1]; 168 h, 7 DAA) [%] | pest or weed control at 280 g/ha ([1]; 336 h, 14 DAA) [%] | pest or weed control at 560 g/ha ([1]; 336 h, 14 DAA) [%] | pest or weed control at 280 g/ha ([1]; 504 h, 21 DAA) [%] | pest or weed control at 560 g/ha ([1]; 504 h, 21 DAA) [%] | pest or weed control at 280 g/ha ([2]; 168 h, 7 DAA) [%] | pest or weed control at 560 g/ha ([2]; 168 h, 7 DAA) [%] | pest or weed control at 280 g/ha ([2]; 336 h, 14 DAA) [%] | pest or weed control at 560 g/ha ([2]; 336 h, 14 DAA) [%] | pest or weed control at 280 g/ha ([2]; 504 h, 21 DAA) [%] | pest or weed control at 560 g/ha ([2]; 504 h, 21 DAA) [%] | pest or weed control at 280 g/ha ([3]; 168 h, 7 DAA) [%] | pest or weed control at 560 g/ha ([3]; 168 h, 7 DAA) [%] | pest or weed control at 280 g/ha ([3]; 336 h, 14 DAA) [%] | pest or weed control at 560 g/ha ([3]; 336 h, 14 DAA) [%] | pest or weed control at 280 g/ha ([3]; 504 h, 21 DAA) [%] | pest or weed control at 560 g/ha ([3]; 504 h, 21 DAA) [%] | pest or weed control at 280 g/ha ([4]; 168 h, 7 DAA) [%] | pest or weed control at 560 g/ha ([4]; 168 h, 7 DAA) [%] | other results |
| --- | --- | --- | --- | --- | --- | --- | --- | --- | --- | --- | --- | --- | --- | --- | --- | --- | --- | --- | --- | --- | --- |
| C/C(N)=N/OC(=O)COc1ccc(Cl)cc1Cl [Compound A12, N′-(2-(2,4-Dichlorophenoxy)acetoxy)acetimidamide] | 75 | 78 | 97 | 83 | 86 | 88 | 65 | 75 | 83 | 96 | 97 | 99 | 85 | 93 | 90 | 97 | 96 | 99 | 68 | 68 | pest or weed control at 280 g/ha ([4]; 336 h, 14 DAA): 80%; pest or weed control at 560 g/ha ([4]; 336 h, 14 DAA): 78%; pest or weed control at 280 g/ha ([4]; 504 h, 21 DAA): 86%; pest or weed control at 560 g/ha ([4]; 504 h, 21 DAA): 80%; pest or weed control at 280 g/ha ([5]; 168 h, 7 DAA): 65%; pest or weed control at 560 g/ha ([5]; 168 h, 7 DAA): 68%; pest or weed control at 280 g/ha ([5]; 336 h, 14 DAA): 90%; pest or weed control at 560 g/ha ([5]; 336 h, 14 DAA): 91%; pest or weed control at 280 g/ha ([5]; 504 h, 21 DAA): 99%; pest or weed control at 560 g/ha ([5]; 504 h, 21 DAA): 97%; TGA Data (rate of weight loss, volatility) [6]: 5.8 µg/min; pest or weed control at 280 g/ha ([7]; 168 h, 7 DAA): 72%; pest or weed control at 560 g/ha ([7]; 168 h, 7 DAA): 76%; pest or weed control at 280 g/ha ([7]; 336 h, 14 DAA): 88%; pest or weed control at 560 g/ha ([7]; 336 h, 14 DAA): 89%; pest or weed control at 280 g/ha ([7]; 504 h, 21 DAA): 93%; pest or weed control at 560 g/ha ([7]; 504 h, 21 DAA): 92% |
| O=C(Cc1ccccc1)NOC(=O)COc1ccc(Cl)cc1Cl [Compound A13, N-(2-(2,4-dichlorophenoxy)acetoxy)-2-phenylacetamide] | 75 | 70 | 80 | 74 | 91 | 70 | 65 | 70 | 85 | 94 | 90 | 97 | 68 | 80 | 70 | 85 | 75 | 93 | 68 | 65 | pest or weed control at 280 g/ha ([4]; 336 h, 14 DAA): 68%; pest or weed control at 560 g/ha ([4]; 336 h, 14 DAA): 78%; pest or weed control at 280 g/ha ([4]; 504 h, 21 DAA): 73%; pest or weed control at 560 g/ha ([4]; 504 h, 21 DAA): 91%; pest or weed control at 280 g/ha ([5]; 168 h, 7 DAA): 60%; pest or weed control at 560 g/ha ([5]; 168 h, 7 DAA): 65%; pest or weed control at 280 g/ha ([5]; 336 h, 14 DAA): 78%; pest or weed control at 560 g/ha ([5]; 336 h, 14 DAA): 97%; pest or weed control at 280 g/ha ([5]; 504 h, 21 DAA): 83%; pest or weed control at 560 g/ha ([5]; 504 h, 21 DAA): 99%; TGA Data (rate of weight loss, volatility) [6]: 1.2 µg/min; pest or weed control at 280 g/ha ([7]; 168 h, 7 DAA): 67%; pest or weed control at 560 g/ha ([7]; 168 h, 7 DAA): 70%; pest or weed control at 280 g/ha ([7]; 336 h, 14 DAA): 76%; pest or weed control at 560 g/ha ([7]; 336 h, 14 DAA): 85%; pest or weed control at 280 g/ha ([7]; 504 h, 21 DAA): 82%; pest or weed control at 560 g/ha ([7]; 504 h, 21 DAA): 90% |
